Where only a bound is given, the exact number is not on record here.

The values below come from US9346799B2, “Useful combinations of monobactam antibiotics with beta-lactamase inhibitors” (Basilea Pharmaceutica AG, priority 2005, dated 2016).

Common to all, as to experiment: MIC by broth microdilution (NCCLS M7-A5)
In assay [1] the test system is Pseudomonas aeruginosa MK1184.
The test system of a further assay is Enterobacter cloacae P99.
The subject of assay [2] is Pseudomonas aeruginosa 1973E.
Assay [3] deals with Klebsiella pneumoniae CF104.
Assay [4] relates to Stenotrophomonas malthophilia 1AC736. Particulars: Stenotrophomonas maltophilia 1AC736.
The next assay concerns Serratia marcescens S6.
The test system of another assay is Acinetobacter sp. J2. Particulars: Acinetobacter baumannii J2.
The mark [5] stands for this setting: + 102 + clavulanate, 4 mg/L each.
Setting [6] is: + 324 + clavulanate, 4 mg/L each.

As for `C[C@H](ON1C(=O)[C@@H](NC(=O)/C(=N\OCc2cc(=O)c(O)cn2O)c2csc(N)n2)[C@@H]1C)C(=O)O` [Compound 23, (2S)-2-((3S,4S)-3-{(2Z)-2-(2-amino(1,3-thiazol-4-yl))-3-[(1,5-dihydroxy-4-oxo(2-hydropyridyl))methoxy]-3-azaprop-2-enoylamino}-4-methyl-2-oxoazetidinyloxy)propanoic acid], the MIC of antibiotic is 8 µg/mL in assay [1] (setting [5]); 8 µg/mL in assay [1] (setting [6]); 8 µg/mL in assay [1] (+ 324 + sulbactam, 4 mg/L each); 8 µg/mL in assay [1] (antibiotic alone); 8 µg/mL in the assay on Enterobacter cloacae P99 (setting [5]); 4 µg/mL in the assay on Enterobacter cloacae P99 (setting [6]). In addition, the MIC of antibiotic in the assay on Enterobacter cloacae P99 (+ 324 + sulbactam, 4 mg/L each) is 8 µg/mL; in the assay on Enterobacter cloacae P99 (antibiotic alone), above 32 µg/mL; in assay [2] (setting [5]), 8 µg/mL; in assay [2] (setting [6]), 16 µg/mL; in assay [2] (+ 324 + sulbactam, 4 mg/L each), 16 µg/mL; in assay [2] (antibiotic alone), 8 µg/mL. Further, the MIC of antibiotic in assay [3] (setting [5]) was 1 µg/mL; in assay [3] (setting [6]), 1 µg/mL; in assay [3] (+ 324 + sulbactam, 4 mg/L each), 2 µg/mL; in assay [3] (antibiotic alone) it was above 32 µg/mL; in assay [4] (antibiotic alone), 1 µg/mL; with Serratia marcescens S6 (setting [5]), 0.25 µg/mL. Further, the MIC of antibiotic in the assay with Serratia marcescens S6 (setting [6]) stood at 0.25 µg/mL; in the assay on Serratia marcescens S6 (+ 324 + sulbactam, 4 mg/L each), 0.5 µg/mL; with Serratia marcescens S6 (antibiotic alone), 0.25 µg/mL; in the assay with Acinetobacter sp. J2 (setting [5]) it was 8 µg/mL; with Acinetobacter sp. J2 (setting [6]), 8 µg/mL; with Acinetobacter sp. J2 (+ 324 + sulbactam, 4 mg/L each), 2 µg/mL. Further, the MIC of antibiotic with Acinetobacter sp. J2 (antibiotic alone) was determined as 16 µg/mL.
For the compound `NC(=O)OCC1C(NC(=O)C(=NOCc2cc(=O)c(O)cn2O)c2csc(N)n2)C(=O)N1OS(=O)(=O)O` (stereo not drawn) [Compound 25], the MIC of antibiotic is 4 µg/mL in assay [1] (setting [5]); 8 µg/mL in assay [1] (setting [6]); above 32 µg/mL in assay [1] (antibiotic alone); 8 µg/mL in the assay with Enterobacter cloacae P99 (setting [5]); 4 µg/mL with Enterobacter cloacae P99 (setting [6]); above 32 µg/mL with Enterobacter cloacae P99 (antibiotic alone). The MIC of antibiotic in assay [2] (setting [5]) is 4 µg/mL; in assay [2] (setting [6]) it was 8 µg/mL; in assay [2] (antibiotic alone), 16 µg/mL; in assay [3] (setting [5]), 0.5 µg/mL; in assay [3] (setting [6]), 0.5 µg/mL; in assay [3] (antibiotic alone), above 32 µg/mL. Besides, the MIC of antibiotic came to 1 µg/mL in assay [4] (setting [5]); 1 µg/mL in assay [4] (setting [6]); 4 µg/mL in assay [4] (antibiotic alone); 1 µg/mL in the assay on Serratia marcescens S6 (setting [5]); 1 µg/mL in the assay with Serratia marcescens S6 (setting [6]); 1 µg/mL with Serratia marcescens S6 (antibiotic alone). The MIC of antibiotic in the assay on Acinetobacter sp. J2 (setting [5]) was 16 µg/mL; in the assay on Acinetobacter sp. J2 (setting [6]), above 32 µg/mL; in the assay with Acinetobacter sp. J2 (antibiotic alone), above 32 µg/mL.
In the case of `CC1C(NC(=O)C(=NOCc2cc(=O)c(O)cn2O)c2csc(NC=O)n2)C(=O)N1S(=O)(=O)O` (stereo not drawn) [Compound 28], the MIC of antibiotic in assay [1] (setting [5]) was 32 µg/mL; in assay [1] (antibiotic alone) it was above 32 µg/mL; in the assay on Enterobacter cloacae P99 (setting [5]), 32 µg/mL; in the assay with Enterobacter cloacae P99 (antibiotic alone) it was above 32 µg/mL; in assay [2] (setting [5]), 16 µg/mL; in assay [2] (antibiotic alone), above 32 µg/mL. Further, the MIC of antibiotic in assay [3] (setting [5]) is 2 µg/mL; in assay [3] (antibiotic alone) it was above 32 µg/mL; in assay [4] (setting [5]), 8 µg/mL; in assay [4] (antibiotic alone), 8 µg/mL; with Serratia marcescens S6 (setting [5]) it was 16 µg/mL; in the assay with Serratia marcescens S6 (antibiotic alone), 8 µg/mL. Further, the MIC of antibiotic with Acinetobacter sp. J2 (setting [5]) and in the assay with Acinetobacter sp. J2 (antibiotic alone) was above 32 µg/mL in each case.
Turning to `C[C@H]1[C@H](NC(=O)/C(=N\OCc2cc(=O)c(O)cn2O)c2nc(N)sc2Cl)C(=O)N1OS(=O)(=O)O` [Compound 29, (3S,4S)-3-{(2Z)-2-(2-amino-5-chloro(1,3-thiazol-4-yl))-3-[(1,5-dihydroxy-4-oxo(2-hydropyridyl))methoxy]-3-azaprop-2-enoylamino}-4-methyl-2-oxoazetidinyl hydroxysulfonate], the MIC of antibiotic in assay [1] (setting [5]) was 8 µg/mL; in assay [1] (+ 102 + sulbactam, 4 mg/L each) it was 4 µg/mL; in assay [1] (+ 323 + sulbactam, 4 mg/L each), 8 µg/mL; in assay [1] (antibiotic alone) it was above 32 µg/mL; with Enterobacter cloacae P99 (setting [5]), 0.25 µg/mL; with Enterobacter cloacae P99 (+ 102 + sulbactam, 4 mg/L each), 8 µg/mL. Besides, the MIC of antibiotic with Enterobacter cloacae P99 (+ 323 + sulbactam, 4 mg/L each) was 8 µg/mL; in the assay with Enterobacter cloacae P99 (antibiotic alone) it was above 32 µg/mL; in assay [2] (setting [5]), 8 µg/mL; in assay [2] (+ 102 + sulbactam, 4 mg/L each) it was 8 µg/mL; in assay [2] (+ 323 + sulbactam, 4 mg/L each) it was 8 µg/mL; in assay [2] (antibiotic alone), 4 µg/mL. Further, the MIC of antibiotic is 0.5 µg/mL in assay [3] (setting [5]); 2 µg/mL in assay [3] (+ 102 + sulbactam, 4 mg/L each); 2 µg/mL in assay [3] (+ 323 + sulbactam, 4 mg/L each); above 32 µg/mL in assay [3] (antibiotic alone); 0.5 µg/mL in assay [4] (setting [5]); 1 µg/mL in assay [4] (+ 102 + sulbactam, 4 mg/L each). For the same compound, the MIC of antibiotic in assay [4] (+ 323 + sulbactam, 4 mg/L each) was determined as 1 µg/mL; in assay [4] (antibiotic alone) it was 1 µg/mL; with Serratia marcescens S6 (setting [5]), 1 µg/mL; in the assay with Serratia marcescens S6 (+ 102 + sulbactam, 4 mg/L each) it was 8 µg/mL; in the assay with Serratia marcescens S6 (+ 323 + sulbactam, 4 mg/L each), 8 µg/mL; in the assay with Serratia marcescens S6 (antibiotic alone) it was 32 µg/mL. Besides, the MIC of antibiotic with Acinetobacter sp. J2 (setting [5]) was above 32 µg/mL; with Acinetobacter sp. J2 (+ 102 + sulbactam, 4 mg/L each) it was 2 µg/mL; in the assay on Acinetobacter sp. J2 (+ 323 + sulbactam, 4 mg/L each), 2 µg/mL; in the assay with Acinetobacter sp. J2 (antibiotic alone), above 32 µg/mL.
Turning to `CC1(C)C(NC(=O)C(=NOCc2cc(=O)c(O)cn2O)c2nsc(N)n2)C(=O)N1OS(=O)(=O)O` (stereo not drawn) [Compound 32], the MIC of antibiotic is 4 µg/mL in assay [1] (setting [5]); 4 µg/mL in assay [1] (setting [6]); 32 µg/mL with Enterobacter cloacae P99 (setting [5]); 8 µg/mL in the assay on Enterobacter cloacae P99 (setting [6]); 16 µg/mL in assay [2] (setting [5]); 8 µg/mL in assay [2] (setting [6]). Moreover, the MIC of antibiotic in assay [3] (setting [5]) is above 32 µg/mL; in assay [3] (setting [6]), 1 µg/mL; in assay [3] (antibiotic alone), 2 µg/mL; in assay [4] (setting [5]), 0.5 µg/mL; in assay [4] (setting [6]), 0.5 µg/mL; in the assay with Serratia marcescens S6 (setting [5]), 0.5 µg/mL. For the same compound, the MIC of antibiotic in the assay on Serratia marcescens S6 (setting [6]) is 0.25 µg/mL; in the assay on Acinetobacter sp. J2 (setting [5]), above 32 µg/mL; with Acinetobacter sp. J2 (setting [6]), 4 µg/mL.
As for `CC1(C)C(NC(=O)C(=NOCc2cc(=O)c(O)cn2O)c2csc(N)n2)C(=O)N1OCC(=O)O` (stereo not drawn) [Compound 33], the MIC of antibiotic in assay [1] (setting [5]) turned out to be 32 µg/mL; in assay [1] (setting [6]), 16 µg/mL; in assay [1] (antibiotic alone), 32 µg/mL; in the assay on Enterobacter cloacae P99 (setting [5]), 32 µg/mL; with Enterobacter cloacae P99 (setting [6]), 4 µg/mL; in the assay on Enterobacter cloacae P99 (antibiotic alone), 16 µg/mL. Moreover, the MIC of antibiotic was found to be 32 µg/mL in assay [2] (setting [5]); 16 µg/mL in assay [2] (setting [6]); 16 µg/mL in assay [2] (antibiotic alone); 2 µg/mL in assay [3] (setting [5]); 0.5 µg/mL in assay [3] (setting [6]); 0.5 µg/mL in assay [3] (antibiotic alone). For the same compound, the MIC of antibiotic came out at 2 µg/mL in assay [4] (setting [5]); 2 µg/mL in assay [4] (setting [6]); 2 µg/mL in assay [4] (antibiotic alone); 0.5 µg/mL in the assay with Serratia marcescens S6 (setting [5]); 0.25 µg/mL in the assay on Serratia marcescens S6 (setting [6]); 0.25 µg/mL with Serratia marcescens S6 (antibiotic alone). The results for the MIC of antibiotic in the assay with Acinetobacter sp. J2 (setting [5]), in the assay with Acinetobacter sp. J2 (setting [6]) and with Acinetobacter sp. J2 (antibiotic alone) were above 32 µg/mL, 16 µg/mL and 8 µg/mL, respectively.
Turning to `NC(=O)OCC1C(NC(=O)C(=NOCc2cc(=O)c(O)cn2O)c2csc(N)n2)C(=O)N1OCC(=O)O` (stereo not drawn) [Compound 41], the MIC of antibiotic in assay [1] (setting [5]) is 4 µg/mL; in assay [1] (antibiotic alone), 4 µg/mL; in the assay on Enterobacter cloacae P99 (setting [5]), 16 µg/mL; in the assay with Enterobacter cloacae P99 (antibiotic alone), above 32 µg/mL; in assay [2] (setting [5]) it was 4 µg/mL; in assay [2] (antibiotic alone) it was 4 µg/mL. The MIC of antibiotic in assay [3] (setting [5]) is 0.5 µg/mL; in assay [3] (antibiotic alone), above 32 µg/mL; in assay [4] (setting [5]), 2 µg/mL; in assay [4] (antibiotic alone), 1 µg/mL; in the assay on Serratia marcescens S6 (setting [5]), 0.5 µg/mL; in the assay with Serratia marcescens S6 (antibiotic alone), 1 µg/mL. Also, the MIC of antibiotic in the assay with Acinetobacter sp. J2 (setting [5]) and with Acinetobacter sp. J2 (antibiotic alone) was 16 µg/mL throughout.
